Measured values taken from paper PMC12503906, “Novel Pyrazolo [1,5‐a]−1,3,5‐Triazine Derivatives as CDK7 Inhibitors: Synthesis and Biological Insights in Pancreatic Ductal Adenocarcinoma Models” (Chemmedchem, 2025).

Assays:
Type in all cases: cell-based
PANC‐1 = test: Cell cycle analysis (FACS, PI staining), PANC‐1; settings: for percentage of cells in the G2‐M phase: untreated 18.1%; for percentage of cells in the G0‐G1 phase: untreated 40.7%; for percentage of cells in the S phase: untreated 41.3%
Description: (§1) Modulation of the cell cycle was analyzed via flow cytometry. Cells (5 × 10^5 cells mL^− ^1) were seeded in 6‐well plates and were incubated at 37 °C overnight. Cells were treated with the compounds 1b and 1g at two different concentrations (1 × IC50 and 4 × IC50, according to each cell line) and were again incubated for 24 and 72 h. After treatment, cells were harvested with trypsin and were collected in specific fluorescence‐activated cell sorting (FACS) tubes. Cells were then washed with PBS and centrifuged at 1500 rpm for 5 min, in order to form a pellet. These pellets were fixed in 1 mL of ice‐cold 70% ethanol, added drop by drop during vortex, and placed in the refrigerator at 4 °C. After overnight incubation, the cells were washed twice with PBS, centrifuged (5 min at 1500 rpm), resuspended in 50 µL of RNase (100 µg mL^− ^1), and incubated for 30 min at 37 °C. Finally, 200 µL of propidium iodide solution (PI, 50 µg mL^− ^1) was added, and the cell distribution in the various phases of the cell cycle was analyzed via BD LSRFortessa Cell Analyzer. Data analysis was carried out with FACSdiva software (Becton Dickinson), while cell cycle distribution was determined using FCS express software.

PDAC3 = test: Wound healing assay, PDAC3; settings: PDAC3, up to 24 h
Description: (§2) The wound healing assay was used to test the migratory ability of the selected cells post‐treatment. Cells (5 × 10^4 /well) were seeded on 96‐well. After 24 h, cells reached the optimal 100% confluency, and an artificial wound was created with a 96‐well Pintool Scratcher. The cells were immediately washed with complete medium, in order to remove cell debris after the scratch, and images of the wells were captured at time 0 h, right before the addition of the treatment. Each drug (1b and 1g) was previously diluted in the respective medium at two different concentrations: 1 × IC50 and 4 × IC50 (according to the cell specific IC50 value) and were then added to the cells. Images were then taken at timepoints 4, 8, 20, and 24 h using the Leica microscope with a JAI TMC‐137 camera to assess wound closure. The images were analyzed using the Universal Grab 6.3 software (DCILabs), and the obtained data were used to determine the percentage of migration of the cells, using the following formula. (2) % Migration=Mean width of the wound atT=0−Mean width of the wound atT=X/Mean width of the wound atT=0×100

SUIT 2.28 = test: Cell cycle analysis (FACS, PI staining), SUIT 2.28; settings: for percentage of cells in the G0‐G1 phase: untreated 24.6%; for percentage of cells in the G2‐M phase: untreated 32.7%; for percentage of cells in the S phase: untreated 42.7%
Description: as §1

Bax/Bcl‐2 = Bax/Bcl‐2 ratio by RT‐PCR, SUIT 2.28 cells
Description: In order to understand modulation of downstream genes of CDK7, gene expression analysis by qPCR was performed in all cell lines. Cells (5 × 10^5/well) were seeded in 6‐well plates and treated with the compounds 1b and 1g at 1× and 4 × IC50 concentrations. Cell lysates were collected 24 h post‐treatment using 300 µL of TRIzol Reagent (Ambion, 15,596,018) per well. Total RNA was extracted by mixing 60 µL of chloroform to the samples, incubating for 3 min and centrifuging at 12,000 rcf for 15 min at 4 °C. The upper aqueous phase containing RNA was transferred to a new Eppendorf and mixed with 120 µL of cold isopropanol in order to allow the RNA to precipitate. Samples were incubated at RT for 10 min and were then centrifuged at 12,000 rcf for 10 min at 4 °C. The isopropanol was carefully removed, and the pellet was washed twice with 70% ETOH. Pellets were left to air dry and consequently resuspended in RNAse‐free water. Samples were left agitation on a thermomixer at 55 °C for 10 min at 600 rpm and were then quantified through NanoDrop technology (Thermo Scientific, NanoDrop One/One^c). RNA samples were stored at −80 °C.
In order to perform cDNA synthesis, the First Strand cDNA synthesis kit (Thermo Scientific, K1612) was used. The previously isolated RNA was mixed with 1 µL of oligo dT18 primer into a pcr tube. Nuclease free water was added to reach a final volume of 11 µL. Samples were centrifuged at 1200 rcf for 5 min and were then placed on a thermomixer at 65 °C for a few minutes. A master mix was prepared, including 4 µL of 5× reaction buffer, 1 µL of ribolock RNAse inhibitor, 2 µL of dntp mix (10 mM), and 2 µL of M‐mulv reverse transcriptase for each sample. In total 9 µL of master mix were added to each vial. Samples were centrifuged again and were finally synthesized, following a cycle of 60 min at 37 °C and 5 min at 70 °C. cDNA was now finally synthesized and could be stored at −20 °C. RT‐PCRs reactions were performed using SYBR Green (Bio‐Rad, 1,725,271) (5 µL per sample), primer mix (0.3 µM) (2 µL per sample), and cDNA (10 ng µL^− ^1) (3 µL per sample). […] RT‐PCR assays were carried out in a GeneAmp 5700 Sequence Detection System programmed to hold at 50 °C for 30 min, to hold at 95 °C for 10 min, and to complete 45 cycles of 95 °C for […] and 50 °C for 1 min. The genes that were investigated are shown in Table 5 , with their respective forward and reverse primer sequences.

PATU‐T GR = test: Wound healing assay, PATU‐T GR; settings: 1× and 4 × IC50, up to 24 h
Description: as §2

SMILES	percentage of cells in the G2‐M phase (PANC‐1; PANC‐1, 1 × IC50, 24 h)	percentage of cells in the G0‐G1 phase (PANC‐1; PANC‐1, 1 × IC50, 24 h)	percentage of cells in the S phase (PANC‐1; PANC‐1, 1 × IC50, 24 h)	percentage of cells in the G2‐M phase (PANC‐1; PANC‐1, 4 × IC50, 24 h)	percentage of cells in the G0‐G1 phase (PANC‐1; PANC‐1, 4 × IC50, 24 h)	percentage of cells in the S phase (PANC‐1; PANC‐1, 4 × IC50, 24 h)	inhibition of cell migration (PDAC3)	percentage of cells in the G0‐G1 phase (SUIT 2.28; SUIT 2.28, 1 × IC50, 24 h)	percentage of cells in the G2‐M phase (SUIT 2.28; SUIT 2.28, 1 × IC50, 24 h)	percentage of cells in the S phase (SUIT 2.28; SUIT 2.28, 1 × IC50, 24 h)	percentage of cells in the G0‐G1 phase (SUIT 2.28; SUIT 2.28, 4 × IC50, 24 h)	percentage of cells in the G2‐M phase (SUIT 2.28; SUIT 2.28, 4 × IC50, 24 h)	percentage of cells in the S phase (SUIT 2.28; SUIT 2.28, 4 × IC50, 24 h)	Bax/Bcl‐2 ratio SUIT 2.28 (Bax/Bcl‐2; 1 × IC50, 24 h after treatment)	Bax/Bcl‐2 ratio SUIT 2.28 (Bax/Bcl‐2; 4 × IC50, 24 h after treatment)	inhibition of cell migration (PATU‐T GR)
Nc1ncnc2cc(-c3c[nH]c4ccc(Br)cc34)nn12 [Compound 1b, 7‐(5‐Bromo‐1H‐indol‐3‐yl)pyrazolo[1,5‐a][1,3,5]triazin‐4‐amine]	12.2%	55.0%	32.7%	10.0%	62.8%	28.3%	significant migration inhibition only at the 24‐hour time point	41.0%	18.7%	40.3%	41.6%	21.6%	34.9%	1.07	1.45	significantly inhibited as early as 4 h
Cn1cc(-c2cc3ncnc(N)n3n2)c2cc(Br)ccc21 [Compound 1g, 7‐(5‐Bromo‐1‐methyl‐1H‐indol‐3‐yl)pyrazolo[1,5‐a][1,3,5]triazin‐4‐amine]	16.9%	55.2%	27.9%	14.1%	56.9%	29.0%	significant migration inhibition only at the 24‐hour time point	36.2%	25.9%	37.8%	40.3%	25.4%	34.2%	1.21	2.06	significantly inhibited as early as 4 h
